From PubChem BioAssay (NCI) come the findings set out here.

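Assay format: 96-well plates, 48-hour exposure. Definition used: TGI = concentration required for complete inhibition of growth.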 Some results are limits rather than exact numbers.

Holding throughout (test): inhibition of tumour cell growth, NCI panel, 48 h
Test [1] relates to DU-145 prostate.
In test [2] the test system is HCT-116 colon.
Test [3] relates to HL-60(TB) leukemia.
In test [4] the test system is HOP-62 NSCLC.
Test [5] concerns MOLT-4 leukemia.
The test system of test [6] is NCI-H23 lung.
The subject of test [7] is NCI-H522 lung.
For test [8], the system named is OVCAR-8 ovarian.
In test [9] the test system is SK-MEL-28 melanoma.
The test system of test [10] is SW-620 colon.
Test [11] has as its system UO-31 renal.

Consider `O=C(NCCCCNCCCNC(=O)C(F)(F)F)C(F)(F)F`, for which the TGI in test [1], in [2], in [3], in [4], in test [5] and in test [6] was above 100 µM each time. In addition, the TGI in test [7], in [8], in test [9], in test [10] and in test [11] was above 100 µM throughout.

For the compound `COC(=O)CC1(O)C(C=C(C)C)C(C(=O)OC)C(=O)C(C(=O)OC)C1C(=O)OC` (centres undefined), the TGI in test [1], in test [2], in [3], in test [4], in test [5] and in test [6] was above 100 µM throughout. Moreover, the TGI in test [7], in [8], in test [9], in [10] and in test [11] was above 100 µM throughout.

As to `CCC(/C=C/c1ccccc1)=N\NC(=S)N/N=C(/C=C/c1ccccc1)CC`, the TGI was above 100 µM in [1]; above 100 µM in test [2]; 62.7 µM in test [3]; above 100 µM in test [4]; above 100 µM in test [5]; above 100 µM in [6]. The TGI in [7] was above 100 µM; in test [8] it was 45.9 µM; in test [9], above 100 µM; in test [10] it was above 100 µM; in [11], above 100 µM.

For `O=C(O)c1cc2c(cc1S(=O)(=O)O)C1C(C3C2C2(Cl)C(Cl)=C(Cl)C3(Cl)C2(Cl)Cl)C2(Cl)C(Cl)=C(Cl)C1(Cl)C2(Cl)Cl` (centres undefined), the TGI in [1] is above 100 µM; in test [2], 32.3 µM; in [3], 79.9 µM; in test [4] it was 89.1 µM; in test [5] it was above 100 µM; in test [6], 73.3 µM. In addition, the TGI was 46.8 µM in test [7]; above 100 µM in [8]; above 100 µM in test [9]; above 100 µM in [10]; above 100 µM in test [11].

As to `NNC(=O)CCCCCCCC(=O)O`, the TGI in test [1], in test [2], in [3], in test [4], in test [5] and in [6] was above 100 µM each time. Besides, the TGI in test [7], in test [8], in [9], in [10] and in test [11] was above 100 µM throughout.

On to `COC(=O)c1ccc(NCC2=CC(=O)c3ccccc3C2=O)cc1`, for which the TGI in test [1] is 31.3 µM; in [2], 35.3 µM; in test [3], above 25.9 µM; in test [4], 34.7 µM; in test [5] it was above 29.1 µM; in test [6], 38.2 µM. The TGI in test [7] is 42.3 µM; in [8], above 100 µM; in test [9], 33.8 µM; in test [10], 54.5 µM; in test [11], 35.8 µM.

With `O=[N+]([O-])/C(C(Cl)=C(Cl)Cl)=C(/Sc1ccccc1)N1CCOCC1`, the TGI in test [1] turned out to be 25.2 µM; in test [2], 3.27 µM; in test [3], 4.51 µM; in test [4] it was 33.5 µM; in [5] it was 4.61 µM; in test [6] it was 29.8 µM. The TGI in test [7] turned out to be 9.36 µM; in test [8], 4.06 µM; in test [9], 17.6 µM; in [10] it was 6.96 µM; in test [11], 16.6 µM.

In the case of `CCOC(=O)CC[C@@H](NC(=O)c1ccc(NCc2ccc3nc(OC)c(OC)nc3c2)cc1)C(=O)OCC`, the TGI in test [1] was above 100 µM; in test [2], above 100 µM; in test [3], above 100 µM; in test [4] it was above 100 µM; in test [5] it was above 31.6 µM; in [6], above 100 µM. The TGI is 50.5 µM in [7]; above 100 µM in test [8]; 22.8 µM in [9]; above 100 µM in [10]; above 65.4 µM in test [11].

Consider `Cc1cc2c(cc1Cl)Sc1nnc(C)n1S2(=O)=O`, for which the TGI was determined as 65 µM in test [1]; 45.4 µM in test [2]; 24.4 µM in test [3]; 57.9 µM in test [4]; 34.7 µM in test [5]; 30.1 µM in [6]. The TGI in test [7] amounted to 23.4 µM; in [8], 48.8 µM; in test [9], 31.5 µM; in [10], 35 µM; in [11], 24.1 µM.

In the case of `Cc1ccc(NNc2cc(=O)[nH]c(=O)[nH]2)cc1Cl`, the TGI in test [1] is above 100 µM; in test [2] it was 28.1 µM; in test [3], 18.3 µM; in test [4], above 100 µM; in test [5], 58.3 µM; in [6], 31.1 µM. Besides, the TGI was 32.8 µM in test [7], 31.7 µM in test [9], 28.2 µM in [10] and 15.3 µM in [11].

As to `C=CC1(CBr)CCC(C(C)(C)Br)O1` (centres undefined), the TGI in [1] worked out at 25.7 µM; in [2] it was 18.5 µM; in test [3] it was 0.893 µM; in test [4], 30 µM; in test [5] it was 7.06 µM; in [6] it was 19.9 µM. Moreover, the TGI in test [7] was determined as 7.14 µM; in test [8], 9.45 µM; in test [9], 23.9 µM; in test [10], 10.5 µM; in [11], 25.7 µM.

For the compound `CCOC(=O)C1(Cc2ccccc2)CCN(C(=O)c2ccccc2)C2C1C2(Cl)Cl` (centres undefined), the TGI in test [1] was above 100 µM; in test [2], 30 µM; in test [3] it was 32.6 µM; in [4], 87.2 µM; in test [5], 52.9 µM; in test [6] it was 77 µM. Moreover, the TGI was 42.5 µM in test [7]; 77.4 µM in [8]; 51.6 µM in test [9]; above 100 µM in [10]; 58.9 µM in [11].

With `CCOC(=O)NNC1(SC)NC(=O)c2c(cc(Cl)oc2=O)O1` (centres undefined), the TGI was 19.7 µM in test [1]; 3.08 µM in [2]; 3.6 µM in test [3]; 25.6 µM in test [4]; 10.3 µM in test [5]; 13.1 µM in [6]. The TGI in test [7] is 6.26 µM; in [8], 5.56 µM; in test [9], 10.5 µM; in [10] it was above 37 µM; in test [11], 3.35 µM.

With `Cc1cc2nc3c(C(O)CO)nn(-c4ccccc4)c3nc2cc1C` (centres undefined), the TGI is 33.1 µM in test [1]; 36.6 µM in test [2]; 45.8 µM in test [3]; 44 µM in test [4]; above 100 µM in test [5]; 54.7 µM in test [6]. The TGI in test [7] turned out to be 68 µM; in test [8] it was 76.8 µM; in test [9], 42 µM; in test [10] it was 55.4 µM; in test [11], 36.1 µM.

As to `COc1ccc2c(-c3ccc(O)cc3)c(Oc3ccccc3)c(=O)oc2c1`, the TGI in test [1] was above 50.8 µM; in test [2], above 93.5 µM; in test [3], above 100 µM; in test [4] it was above 100 µM; in test [5] it was above 100 µM; in [6], above 100 µM. Moreover, the TGI was above 100 µM in test [7]; above 100 µM in [8]; above 100 µM in [9]; above 100 µM in [10]; 27.5 µM in test [11].

Take `C=CCC1(O)c2cccc(O)c2C(=O)c2cccc(O)c21` (centres undefined): the TGI in test [1] was 54.5 µM; in test [2], 31.1 µM; in test [3], 34.2 µM; in test [4], 49.7 µM; in test [5], 53.6 µM; in test [6], 31.7 µM. Further, the TGI is 42 µM in test [7]; above 100 µM in [8]; 84.7 µM in test [9]; above 100 µM in test [10]; 52.8 µM in [11].

`COc1ncc(C#CC(=O)c2ccccc2OC)c(OC)n1`: the TGI in test [1] was determined as 12.3 µM; in test [2], 9.72 µM; in [3] it was 4.63 µM; in test [4], 40.5 µM; in test [5], 1.61 µM; in test [6] it was 7.56 µM. The TGI in test [7] amounted to 2.21 µM; in [8], 5.05 µM; in test [9], 8.06 µM; in test [10] it was 2.73 µM; in test [11], 2.97 µM.

With `OCC1CCCCN1Cc1nc2ccc(Cl)cc2[nH]1` (centres undefined), the TGI in test [1], in test [2], in [3], in [4], in test [5] and in test [6] was above 100 µM in each case. The TGI in test [7], in test [8], in [9], in test [10] and in test [11] was above 100 µM throughout.

For the compound `CC1=NN(C(=O)CC(=O)Nc2cccc(Cl)c2)C(=O)C1N=Nc1ccc(S(=O)(=O)c2ccc(N=NC3C(=O)N(C(=O)CC(=O)Nc4cccc(Cl)c4)N=C3C)cc2)cc1` (centres undefined), the TGI in test [1], in test [2], in test [3], in test [4], in test [5] and in test [6] was above 100 µM each time. Moreover, the TGI in test [7], in [8], in [9], in test [10] and in [11] was above 100 µM in each case.

Regarding `CCOP(=O)(OCC)C(Cc1ccccc1)N=C(c1ccccc1)c1ccccc1` (centres undefined), the TGI in [1] is 36.3 µM; in test [2], 30.8 µM; in test [3], above 100 µM; in [4], 35.2 µM; in [5], 25.8 µM; in [6] it was 28.6 µM. For the same compound, the TGI in [7] amounted to 29.6 µM; in [8], 33.8 µM; in test [9], 31.3 µM; in test [10], 25.2 µM; in test [11] it was 24.4 µM.

As to `CC(=O)NC1CCC(NC(=O)OC(C)(C)C)C(NC(=O)OC(C)(C)C)C1` (centres undefined), the TGI in test [1], in test [2], in test [3], in test [4], in test [5] and in test [6] was above 100 µM in each case. Moreover, the TGI in test [7], in test [8], in test [9], in test [10] and in test [11] was above 100 µM in each case.

As to `COc1cc(/C=C2\CCc3cc(OC)c(OC)cc3C2=O)cc(OC)c1`, the TGI in test [1] was 78.5 µM; in [2] it was above 42.3 µM; in test [3], above 24 µM; in test [4], above 87.1 µM; in test [5], above 100 µM; in test [6], above 86.7 µM. In addition, the TGI in [7] is above 42.3 µM; in test [8], above 52 µM; in [9], above 100 µM; in test [10] it was above 100 µM; in test [11] it was above 100 µM.

As for `CC(=O)O/C(=C(/C#N)C(=O)O)C1C(C(=O)O)C(c2ccccc2[N+](=O)[O-])C=C(c2ccco2)N1c1ccncc1` (centres undefined), the TGI in test [1] is 21.4 µM; in [2], 3.06 µM; in test [3], above 100 µM; in test [4], 21.6 µM; in test [5] it was 14.4 µM; in test [6] it was 12.7 µM. Further, the TGI in [7] was determined as 11.3 µM; in test [8], 14.6 µM; in [9], 23.7 µM; in test [10], 3.57 µM; in test [11], 7.53 µM.

For the compound `COc1ccc(CN=C2Nc3ccncc3S(=O)(=O)N2c2ccccc2)cc1`, the TGI was above 100 µM in test [1]; above 100 µM in [2]; 36.8 µM in test [3]; above 100 µM in [4]; 44.7 µM in test [5]; above 100 µM in test [6]. Besides, the TGI is above 100 µM in [7]; above 100 µM in test [8]; 87.6 µM in [9]; above 100 µM in [10]; above 100 µM in test [11].

On to `CC1C=C(NCC2(CO)CCC2)NC(N)=N1` (centres undefined), for which the TGI in test [1], in test [2], in test [3], in test [4], in [5] and in test [6] was above 100 µM each time. Also, the TGI in test [7], in test [8], in test [9], in test [10] and in test [11] was above 100 µM throughout.
